Data from patent publication US10732174B2, “Three dimensional tissues for high-throughput assays” (INVIVOSCIENCES, INC., priority 2008, dated 2020).

Tests used:
[1] = system: F-actin in HTCs of REF-52 cells; experiment: F-actin content of HTCs, Alexa-phalloidin, plate reader; type: cell-based, rat; conditions: HTC treated 24 hours
Source text: FIG. 5A-FIG. 5W. FIG. 5A is a photograph of The Palpator™. The system includes an isometric force transducer (a), probe baths (b), and a hydrogel tissue construct (HTC) stage (c) on a temperature regulator plate (d). FIG. 5B is a photograph showing the x-y-z motion robotic arm which positions the force transducer with attached probe above the HTCs and lowers the probe onto the tissue for force measurement. FIG. 5C is a schematic of the robotic arm with attached force transducer and probe. FIG. 5D is a photograph of the probe positioned 1 mm above the mid-plane of a HTC (a) and then lowered until it first touches (b) and then stretches (c) the tissue. FIG. 5E is a graph showing representative forces recorded during HTC indentation. Arrows a, b, and c show force measurements associated with probe positions shown in (D). […] HTCs were preconditioned, then treated with varying concentrations of the four drugs as indicated. Forces were measured at 3 (f) and 24 hr (g). Force measurements were expressed relative to control, medium treated, HTCs (Fc). […] HTCs treated with drugs for 24 hours were fixed and labeled with Alexa 568 conjugated phalloidin. Fluorescence intensity was read on a plate reader and plotted relative to control, media treated, HTCs (Ic). […] At 3 hr (i-m) and 24 hr (n-r, s-w) post treatment, representative monolayers were fixed and stained with Alexa 568 conjugated phalloidin and DAPI. […] Note the larger scale bar in (g) and (l). Images were captured on a Leica SP5 confocal microscope using a water-immersion 63× objective, scale bar=50 μm.
Tissue force is maintained through the integrity of the cellular cytoskeleton, especially actin and myosin. To quantify amount of F (filamentous)-actin in the HTCs treated with the compounds, the HTCs were stained with Alexa […] conjugated phalloidin. […] This is in agreement with our previous report that CD mediated reduction in tissue force was due to the loss of intact F-actin. However, force reductions by H1152 and DNP were not related to the loss of F-actin. […] By 24 hours, short F-actins were re-distributed within less-spread (FIG. 5O) and binuclear (FIG. 5T) cells.

HepG2 cells = conditions: previously reported; cited from earlier work

| Structure (SMILES) | F-actin content of HTCs (Alexa-phalloidin intensity) [1] | toxicity (HepG2 cells) [%] |
| --- | --- | --- |
| O=[N+]([O-])c1ccc(O)c([N+](=O)[O-])c1 [DNP, 2,4-dinitrophenol] | comparable to controls |  |
| C=C(C)[C@H]1Cc2c(ccc3c2O[C@@H]2COc4cc(OC)c(OC)cc4[C@@H]2C3=O)O1 [ROT, rotenone] | inconclusive | 25 |
